Source: US20240393292A1, “ALLERGY ANTIGEN AND EPITOPE THEREOF” (HOYU CO., LTD., priority 2019, published 2024)

Tested on: IgE antibodies from patients
Experiment: Wheat epitope mapping (2): overlapping 10-amino-acid peptide fragments shifted by one amino acid;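 note: key = sequence deemed particularly important within the common 15-residue sequence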
Assay type: binding, human
Details: sequence without X
How it was run: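 Residual binding was banded as <30% none, 30–<50% poor, 50–<70% somewhat poor and ≥70% retained, relative to the parent overlapping sequence set to 100%. Values were chemiluminescent IgE signals from patient sera after subtracting secondary-antibody-only controls. The peptides were spot-synthesised 10-mers shifted by one amino acid.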

1441 (YLQPQQPISQ; REGION 1..10: note = epitope) [compound 1441]
Rank of partial sequence as epitope binding to IgE antibody (serum of patient P18 (WDEIA)): Preferably

1442 (YLQPQQPIS; REGION 1..9: note = epitope) [compound 1442]
Rank of partial sequence as epitope binding to IgE antibody (serum of patient P18 (WDEIA)): Key

1443 (SQQQA; REGION 1..5: note = epitope) [compound 1443]
Rank of partial sequence as epitope binding to IgE antibody (serum of patient P18 (WDEIA)): Key

1444 (YLQPQQPIS; REGION 1..9: note = epitope) [compound 1444]
Rank of partial sequence as epitope binding to IgE antibody (serum of patient P21 (WDEIA)): Preferably

1445 (YLQPQ; REGION 1..5: note = epitope) [compound 1445]
Rank of partial sequence as epitope binding to IgE antibody (serum of patient P21 (WDEIA)): Key

1446 (PQQPISQQQ; REGION 1..9: note = epitope) [compound 1446]
Rank of partial sequence as epitope binding to IgE antibody (serum of patient P21 (WDEIA)): Preferably

1447 (QQPISQQQ; REGION 1..8: note = epitope) [compound 1447]
Rank of partial sequence as epitope binding to IgE antibody (serum of patient P21 (WDEIA)): Key

1450 (YLQPQQPISQ; REGION 1..10: note = epitope) [compound 1450]
Rank of partial sequence as epitope binding to IgE antibody (serum of patient P22 (WDEIA)): Further preferably

1451 (LQPQQPISQ; REGION 1..9: note = epitope) [compound 1451]
Rank of partial sequence as epitope binding to IgE antibody (serum of patient P22 (WDEIA)): More preferably

1454 (QQPISQQQAQ; REGION 1..10: note = epitope) [compound 1454]
Rank of partial sequence as epitope binding to IgE antibody (serum of patient P22 (WDEIA)): More preferably

1459 (YLQPQQPISQ; REGION 1..10: note = epitope) [compound 1459]
Rank of partial sequence as epitope binding to IgE antibody (serum of patient P24 (WDEIA)): Further preferably

1460 (LQPQQPISQ; REGION 1..9: note = epitope) [compound 1460]
Rank of partial sequence as epitope binding to IgE antibody (serum of patient P24 (WDEIA)): More preferably

1463 (QQPISQQQAQ; REGION 1..10: note = epitope) [compound 1463]
Rank of partial sequence as epitope binding to IgE antibody (serum of patient P24 (WDEIA)): Further preferably

1464 (QQPISQQQA; REGION 1..9: note = epitope) [compound 1464]
Rank of partial sequence as epitope binding to IgE antibody (serum of patient P24 (WDEIA)): More preferably

1467 (YLQPQQPIS; REGION 1..9: note = epitope) [compound 1467]
Rank of partial sequence as epitope binding to IgE antibody (serum of patient P26 (WDEIA)): Preferably

1468 (YLQPQQP; REGION 1..7: note = epitope) [compound 1468]
Rank of partial sequence as epitope binding to IgE antibody (serum of patient P26 (WDEIA)): Key

1472 (YLQPQQPIS; REGION 1..9: note = epitope) [compound 1472]
Rank of partial sequence as epitope binding to IgE antibody (serum of patient P27 (WDEIA)): Preferably

1474 (LQPQQPIS; REGION 1..8: note = epitope) [compound 1474]
Rank of partial sequence as epitope binding to IgE antibody (serum of patient P27 (WDEIA)): Preferably

1477 (YLQPQQPISQ; REGION 1..10: note = epitope) [compound 1477]
Rank of partial sequence as epitope binding to IgE antibody (serum of patient P32 (WDEIA)): Preferably

1478 (YLQPQQPIS; REGION 1..9: note = epitope) [compound 1478]
Rank of partial sequence as epitope binding to IgE antibody (serum of patient P32 (WDEIA)): Key

1479 (YLQPQQPISQ; REGION 1..10: note = epitope) [compound 1479]
Rank of partial sequence as epitope binding to IgE antibody (serum of patient P33 (WDEIA)): Preferably

1480 (YLQPQQPIS; REGION 1..9: note = epitope) [compound 1480]
Rank of partial sequence as epitope binding to IgE antibody (serum of patient P33 (WDEIA)): Key

1482 (YLQPQQPISQ; REGION 1..10: note = epitope) [compound 1482]
Rank of partial sequence as epitope binding to IgE antibody (serum of patient P34 (WDEIA)): More preferably

1483 (YLQPQQPIS; REGION 1..9: note = epitope) [compound 1483]
Rank of partial sequence as epitope binding to IgE antibody (serum of patient P34 (WDEIA)): Preferably

1484 (YLQPQQP; REGION 1..7: note = epitope) [compound 1484]
Rank of partial sequence as epitope binding to IgE antibody (serum of patient P34 (WDEIA)): Key

1485 (SQQQA; REGION 1..5: note = epitope) [compound 1485]
Rank of partial sequence as epitope binding to IgE antibody (serum of patient P34 (WDEIA)): Key

1487 (YLQPQQPISQ; REGION 1..10: note = epitope) [compound 1487]
Rank of partial sequence as epitope binding to IgE antibody (serum of patient P35 (WDEIA)): Preferably

1488 (YLQPQQPIS; REGION 1..9: note = epitope) [compound 1488]
Rank of partial sequence as epitope binding to IgE antibody (serum of patient P35 (WDEIA)): Key

1489 (QQPISQQQAQ; REGION 1..10: note = epitope) [compound 1489]
Rank of partial sequence as epitope binding to IgE antibody (serum of patient P35 (WDEIA)): Preferably

1492 (YLQPQQPISQ; REGION 1..10: note = epitope) [compound 1492]
Rank of partial sequence as epitope binding to IgE antibody (serum of patient P36 (WDEIA)): Preferably

1493 (YLQPQQPIS; REGION 1..9: note = epitope) [compound 1493]
Rank of partial sequence as epitope binding to IgE antibody (serum of patient P36 (WDEIA)): Key
